Source: publication PMC4851326, “Pharmacologic Comparison of Clinical Neutral Endopeptidase Inhibitors in a Rat Model of Acute Secretory Diarrhea” (The Journal of Pharmacology and Experimental Therapeutics, 2016)

Columns and labels:
[1] = target: T1, ACE (Homo sapiens, UniProt P12821); experiment: Purified peptidase assay, ACE; format: biochemical; details: recombinant purified human enzyme; for prodrugs the active form was tested
T1 construct: purchased R&D Systems (Minneapolis, MN)
Procedure: (§1) Purified recombinant human enzymes were purchased from R&D Systems (Minneapolis, MN). […] Each substrate was diluted to 100 μM in the assay buffer recommended for each enzyme by the supplier. […] To these, 5 μl of diluted enzyme was added, followed by 10 μl of the quenched peptide substrate. The plates were incubated at 37°C until at least 10% substrate turnover or 5 μM product had formed. Fluorescence was measured using a Tecan Safire II (Excitation 320 nm/Emission 420 nm). Each plate included a standard curve of reaction product and positive (no enzyme) and negative (dimethyl sulfoxide vehicle) controls. Dose-response data were plotted and inhibition values (IC50) determined by linear regression analysis using GraphPad Prism (GraphPad Software, La Jolla, CA).

[2] = target: T2, ECE-1 (Homo sapiens, UniProt P42892); experiment: biochemical; details: recombinant purified human enzyme; for prodrugs the active form was tested
T2 construct: purchased R&D Systems (Minneapolis, MN)
T2 sequence (P42892 1-770): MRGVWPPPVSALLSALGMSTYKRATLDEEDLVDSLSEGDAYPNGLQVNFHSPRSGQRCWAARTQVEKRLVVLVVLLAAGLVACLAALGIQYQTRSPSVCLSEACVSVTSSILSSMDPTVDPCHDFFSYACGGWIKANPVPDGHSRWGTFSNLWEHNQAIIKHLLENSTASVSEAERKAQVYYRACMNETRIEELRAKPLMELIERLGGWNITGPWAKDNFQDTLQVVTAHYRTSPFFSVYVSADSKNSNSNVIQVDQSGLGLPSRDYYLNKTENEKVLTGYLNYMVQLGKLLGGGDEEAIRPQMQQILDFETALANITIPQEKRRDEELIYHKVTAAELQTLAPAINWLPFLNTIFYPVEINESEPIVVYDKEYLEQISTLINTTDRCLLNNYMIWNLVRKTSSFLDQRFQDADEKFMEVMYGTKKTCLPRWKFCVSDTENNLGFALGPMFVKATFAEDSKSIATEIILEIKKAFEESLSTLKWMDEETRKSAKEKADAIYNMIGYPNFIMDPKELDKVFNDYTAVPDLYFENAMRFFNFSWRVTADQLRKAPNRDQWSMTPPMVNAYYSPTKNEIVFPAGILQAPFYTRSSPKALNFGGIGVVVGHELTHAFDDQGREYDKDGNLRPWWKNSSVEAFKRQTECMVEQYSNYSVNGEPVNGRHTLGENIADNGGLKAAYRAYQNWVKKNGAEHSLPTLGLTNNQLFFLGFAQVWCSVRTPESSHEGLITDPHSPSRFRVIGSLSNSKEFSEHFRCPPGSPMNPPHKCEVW
Procedure: as §1

[3] = target: T3, IDE (Homo sapiens, UniProt P14735); experiment: Purified peptidase assay, IDE; format: biochemical; details: recombinant purified human enzyme; for prodrugs the active form was tested
T3 construct: purchased R&D Systems (Minneapolis, MN)
T3 sequence (P14735 1-1019): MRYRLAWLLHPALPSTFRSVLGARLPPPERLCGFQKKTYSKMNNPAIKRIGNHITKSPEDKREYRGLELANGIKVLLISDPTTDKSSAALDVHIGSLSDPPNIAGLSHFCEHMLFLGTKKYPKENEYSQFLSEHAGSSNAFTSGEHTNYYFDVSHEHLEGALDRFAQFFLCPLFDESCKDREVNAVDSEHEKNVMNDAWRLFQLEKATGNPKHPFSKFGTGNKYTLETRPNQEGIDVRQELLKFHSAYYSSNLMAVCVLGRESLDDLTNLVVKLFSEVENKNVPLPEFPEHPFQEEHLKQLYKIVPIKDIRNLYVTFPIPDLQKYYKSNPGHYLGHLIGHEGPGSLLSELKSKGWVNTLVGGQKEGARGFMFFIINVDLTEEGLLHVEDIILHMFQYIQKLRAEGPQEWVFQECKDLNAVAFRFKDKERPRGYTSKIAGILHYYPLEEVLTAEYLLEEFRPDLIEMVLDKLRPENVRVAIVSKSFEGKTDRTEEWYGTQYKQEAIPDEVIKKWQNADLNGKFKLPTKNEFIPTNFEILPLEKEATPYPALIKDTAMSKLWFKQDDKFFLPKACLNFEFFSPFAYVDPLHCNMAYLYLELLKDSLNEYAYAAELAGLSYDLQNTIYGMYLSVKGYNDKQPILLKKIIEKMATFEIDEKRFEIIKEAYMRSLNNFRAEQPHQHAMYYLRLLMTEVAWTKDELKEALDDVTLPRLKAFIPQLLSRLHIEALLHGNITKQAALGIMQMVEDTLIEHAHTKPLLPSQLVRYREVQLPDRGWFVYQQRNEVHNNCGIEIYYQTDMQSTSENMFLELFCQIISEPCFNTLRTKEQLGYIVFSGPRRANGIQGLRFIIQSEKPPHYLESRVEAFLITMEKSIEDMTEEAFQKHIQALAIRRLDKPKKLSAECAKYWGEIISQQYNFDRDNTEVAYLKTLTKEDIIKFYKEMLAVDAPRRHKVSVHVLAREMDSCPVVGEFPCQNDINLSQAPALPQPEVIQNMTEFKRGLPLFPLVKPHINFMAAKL
Procedure: as §1

[4] = target: T4, aminopeptidase N (Homo sapiens, UniProt P15144); experiment: Purified peptidase assay, APN; format: biochemical; details: recombinant purified human enzyme; for prodrugs the active form was tested
T4 construct: purchased R&D Systems (Minneapolis, MN)
Procedure: as §1

[5] = test system: castor oil–induced diarrhea; experiment: Castor oil–induced diarrhea model; format: in vivo, rat; details: single oral dose 30 minutes before castor oil, fasted rats, vs vehicle (Fig. 1)
Procedure: Experiments were performed with 6-to-7-week-old male Wistar rats obtained from Charles River Laboratories (Wilmington, MA). All animals were housed in Saint Louis University facilities under controlled conditions of temperature, humidity, and a 12-hour light/dark cycle. They were maintained on standard rodent chow with free access to water. Animal care and all procedures were performed in accordance with the National Institutes of Health Guide for the Care and Use of Laboratory Animals and approved by the university’s institutional animal care and use committee.
Animals were weighed and individually housed in metabolic cages containing white paper underneath to collect feces. Test compounds or vehicles were administered by oral gavage (5 ml/kg), and then at indicated times, 10 ml/kg body weight of 100% castor oil was administered by oral gavage to induce diarrhea. Animals had access to food within 5 minutes. Stool weight was recorded starting 15 minutes after castor oil administration and repeated every 15 minutes up to 4 hours. […] After 4 hours, animals were euthanized with CO2, and blood and tissues were collected for analyses.

T4 sequence (P15144 whole entry): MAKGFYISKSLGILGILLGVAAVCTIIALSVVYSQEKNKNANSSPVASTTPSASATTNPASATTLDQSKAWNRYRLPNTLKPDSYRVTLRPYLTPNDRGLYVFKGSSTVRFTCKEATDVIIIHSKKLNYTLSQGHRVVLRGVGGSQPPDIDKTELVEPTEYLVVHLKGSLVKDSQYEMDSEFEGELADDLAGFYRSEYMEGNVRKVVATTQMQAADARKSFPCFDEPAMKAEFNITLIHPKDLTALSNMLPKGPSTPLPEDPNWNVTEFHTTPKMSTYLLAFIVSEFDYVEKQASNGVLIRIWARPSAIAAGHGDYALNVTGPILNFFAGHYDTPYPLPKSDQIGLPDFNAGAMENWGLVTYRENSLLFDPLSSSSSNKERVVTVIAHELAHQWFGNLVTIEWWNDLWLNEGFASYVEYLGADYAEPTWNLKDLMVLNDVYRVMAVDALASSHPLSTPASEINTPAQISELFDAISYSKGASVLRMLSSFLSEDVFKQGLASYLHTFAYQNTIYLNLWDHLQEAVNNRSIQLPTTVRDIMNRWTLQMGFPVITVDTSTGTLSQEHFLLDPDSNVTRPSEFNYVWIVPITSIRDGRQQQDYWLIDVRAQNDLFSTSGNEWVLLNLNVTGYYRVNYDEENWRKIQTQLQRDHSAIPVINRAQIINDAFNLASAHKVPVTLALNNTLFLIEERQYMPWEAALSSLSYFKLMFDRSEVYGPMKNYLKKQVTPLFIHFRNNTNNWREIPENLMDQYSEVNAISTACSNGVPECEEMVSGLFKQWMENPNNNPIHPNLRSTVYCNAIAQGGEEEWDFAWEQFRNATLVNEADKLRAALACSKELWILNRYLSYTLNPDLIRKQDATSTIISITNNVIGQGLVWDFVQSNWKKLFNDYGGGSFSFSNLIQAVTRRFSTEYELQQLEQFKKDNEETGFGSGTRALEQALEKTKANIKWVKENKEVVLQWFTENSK
T1 sequence (P12821 30-1306): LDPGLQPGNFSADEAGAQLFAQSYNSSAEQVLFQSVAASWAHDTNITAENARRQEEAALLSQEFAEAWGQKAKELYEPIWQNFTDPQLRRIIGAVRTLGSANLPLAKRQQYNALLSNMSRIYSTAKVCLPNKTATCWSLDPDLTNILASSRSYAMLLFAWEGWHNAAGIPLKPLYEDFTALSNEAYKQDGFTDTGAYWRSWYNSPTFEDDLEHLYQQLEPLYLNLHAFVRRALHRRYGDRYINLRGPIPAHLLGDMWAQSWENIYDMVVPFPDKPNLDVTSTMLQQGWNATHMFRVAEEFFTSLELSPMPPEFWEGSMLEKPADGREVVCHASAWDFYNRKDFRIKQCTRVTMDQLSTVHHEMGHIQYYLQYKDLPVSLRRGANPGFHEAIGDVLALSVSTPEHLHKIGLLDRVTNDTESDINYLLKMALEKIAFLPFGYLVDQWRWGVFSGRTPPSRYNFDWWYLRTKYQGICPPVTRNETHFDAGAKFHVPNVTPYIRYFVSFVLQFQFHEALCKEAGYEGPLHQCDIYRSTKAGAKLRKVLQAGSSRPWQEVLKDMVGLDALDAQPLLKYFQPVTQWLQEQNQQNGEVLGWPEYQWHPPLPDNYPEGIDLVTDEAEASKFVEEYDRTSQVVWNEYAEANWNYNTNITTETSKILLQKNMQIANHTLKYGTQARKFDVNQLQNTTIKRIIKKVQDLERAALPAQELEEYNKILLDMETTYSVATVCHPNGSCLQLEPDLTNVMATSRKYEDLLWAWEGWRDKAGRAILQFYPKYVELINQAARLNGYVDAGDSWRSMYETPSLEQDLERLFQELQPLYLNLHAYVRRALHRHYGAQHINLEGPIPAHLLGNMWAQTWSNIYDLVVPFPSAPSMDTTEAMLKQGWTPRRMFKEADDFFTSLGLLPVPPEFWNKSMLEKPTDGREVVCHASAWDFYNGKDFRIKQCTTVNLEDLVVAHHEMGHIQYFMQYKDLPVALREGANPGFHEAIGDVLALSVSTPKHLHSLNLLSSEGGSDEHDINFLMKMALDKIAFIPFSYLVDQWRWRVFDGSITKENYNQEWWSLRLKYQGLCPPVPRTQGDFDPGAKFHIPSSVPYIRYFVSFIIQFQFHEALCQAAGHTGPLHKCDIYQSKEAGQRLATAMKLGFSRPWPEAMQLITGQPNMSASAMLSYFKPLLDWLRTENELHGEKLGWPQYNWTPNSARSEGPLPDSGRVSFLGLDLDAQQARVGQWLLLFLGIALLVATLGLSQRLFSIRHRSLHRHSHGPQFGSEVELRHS

- IC50 [1]: > 100 µM
- IC50 [2]: 3.3 µM
- IC50 [3]: > 100 µM
- IC50 [4]: > 100 µM
SMILES: Cc1nc2ccc(CCCNC(=O)C3(C[C@@H](C)C(=O)O)CCCC3)cc2s1 [UK-505,749, (R)-2-methyl-3-(1-((3-(2-methylbenzo[d]thiazol-6-yl)propyl)carbamoyl)cyclopentyl)propanoic acid]
- Cumulative stool output over 4 hours [5]: significantly reduced
